This passage reports cytotoxicity results from patent US11345712B2, “Protein-targeting compounds and pharmaceutical compositions thereof, and their therapeutic applications” (BioTheryX, Inc., priority 2019, dated 2022).

In this test the test system is MOLM-13 cells. As to the kind of experiment: MOLM-13 cell viability assay (CellTiter-Glo). Conditions: Homo sapiens, MOLM-13, 72 h, 3 days, concentration of 1 μM, read-out: Antiproliferative Activity (inhibition, MOLM-13 cell viability). The class given is cell-based. The essentials:
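MOLM-13 AML cells in RPMI 1640 with 10% FBS, seeded at 2,500 cells/well and exposed to compound or DMSO for 3 days at 37° C, 5% CO2. Viability read as CellTiter-Glo luminescence after 10 min shaking.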

As for `COc1c(F)cccc1CC(=O)NCc1cc2c(s1)C(=O)N(C1CCC(=O)NC1=O)C2` (stereo not drawn) [II-116, N-((5-(2,6-dioxopiperidin-3-yl)-6-oxo-5,6-dihydro-4H-thieno[2,3-c]pyrrol-2-yl)methyl)-2-(3-fluoro-2-methoxyphenyl)acetamide], the cytotoxicity at 1 µM was less than 25%.
The figure for `O=C1CCC(N2Cc3c(csc3CNC(=S)Nc3c(Cl)c(Cl)cc(Cl)c3Cl)C2=O)C(=O)N1` (stereo not drawn) [II-123, 1-((5-(2,6-dioxopiperidin-3-yl)-4-oxo-5,6-dihydro-4H-thieno[3,4-c]pyrrol-1-yl)methyl)-3-(2,3,5,6-tetrachlorophenyl)thiourea] is less than 25%; for `CC(C)(C)c1ccc(S(=O)(=O)NCc2scc3c2CN(C2CCC(=O)NC2=O)C3=O)cc1` (stereo not drawn) [II-124, 4-(tert-butyl)-N-((5-(2,6-dioxopiperidin-3-yl)-4-oxo-5,6-dihydro-4H-thieno[3,4-c]pyrrol-1-yl)methyl)benzenesulfonamide] it is less than 25%.
Next, `CC(C)(C)c1ccc(C2(C(=O)NCc3scc4c3CN(C3CCC(=O)NC3=O)C4=O)CC2)cc1` (stereo not drawn) [II-127, 1-(4-(tert-butyl)phenyl)-N-((5-(2,6-dioxopiperidin-3-yl)-4-oxo-5,6-dihydro-4H-thieno[3,4-c]pyrrol-1-yl)methyl)cyclopropane-1-carboxamide]: 25 to 50%; `CC(C)(C)c1ccc(CS(=O)(=O)NCc2scc3c2CN(C2CCC(=O)NC2=O)C3=O)cc1` (stereo not drawn) [II-128, 1-(4-(tert-butyl)phenyl)-N-((5-(2,6-dioxopiperidin-3-yl)-4-oxo-5,6-dihydro-4H-thieno[3,4-c]pyrrol-1-yl)methyl)methanesulfonamide]: more than 80%; `CC(C)(C)c1ccc(C(F)(F)C(=O)NCc2scc3c2CN(C2CCC(=O)NC2=O)C3=O)cc1` (stereo not drawn) [II-129, 2-(4-(tert-butyl)phenyl)-N-((5-(2,6-dioxopiperidin-3-yl)-4-oxo-5,6-dihydro-4H-thieno[3,4-c]pyrrol-1-yl)methyl)-2,2-difluoroacetamide]: less than 25%.
Next, `CC(C)(C)c1ccc(S(=O)(=O)NCCc2scc3c2CN(C2CCC(=O)NC2=O)C3=O)cc1` (stereo not drawn) [II-131, 4-(tert-butyl)-N-(2-(5-(2,6-dioxopiperidin-3-yl)-4-oxo-5,6-dihydro-4H-thieno[3,4-c]pyrrol-1-yl)ethyl)benzenesulfonamide]: less than 25%.
As to `CC(C)(C)c1ccc(C(O)C(=O)NCc2scc3c2CN(C2CCC(=O)NC2=O)C3=O)cc1` (stereo not drawn) [II-132, 2-(4-(tert-butyl)phenyl)-N-((5-(2,6-dioxopiperidin-3-yl)-4-oxo-5,6-dihydro-4H-thieno[3,4-c]pyrrol-1-yl)methyl)-2-hydroxyacetamide], the cytotoxicity at 1 µM was 25 to 50%.
Next, `CC(C)(C)c1ccc(C(O)(C(=O)NCc2scc3c2CN(C2CCC(=O)NC2=O)C3=O)C(F)(F)F)cc1` (stereo not drawn) [II-133, 2-(4-(tert-butyl)phenyl)-N-((5-(2,6-dioxopiperidin-3-yl)-4-oxo-5,6-dihydro-4H-thieno[3,4-c]pyrrol-1-yl)methyl)-3,3,3-trifluoro-2-hydroxypropanamide]: less than 25%; `O=C1CCC(N2Cc3c(csc3CNC(=O)NCCCOc3ccccc3)C2=O)C(=O)N1` (stereo not drawn) [II-145, 1-((5-(2,6-dioxopiperidin-3-yl)-4-oxo-5,6-dihydro-4H-thieno[3,4-c]pyrrol-1-yl)methyl)-3-(3-phenoxypropyl)urea]: 50 to 80%; `O=C(CCCc1ccc(N2CCOCC2)cc1)NCc1scc2c1CN(C1CCC(=O)NC1=O)C2=O` (stereo not drawn) [II-146, N-((5-(2,6-dioxopiperidin-3-yl)-4-oxo-5,6-dihydro-4H-thieno[3,4-c]pyrrol-1-yl)methyl)-4-(4-morpholinophenyl)butanamide]: less than 25%.
Next, `CC(C)(C)c1ccc(C(C(=O)NCc2scc3c2CN(C2CCC(=O)NC2=O)C3=O)C(F)(F)F)cc1` (stereo not drawn) [II-147, 2-(4-(tert-butyl)phenyl)-N-((5-(2,6-dioxopiperidin-3-yl)-4-oxo-5,6-dihydro-4H-thieno[3,4-c]pyrrol-1-yl)methyl)-3,3,3-trifluoropropanamide]: less than 25%.
